Assay results published in ChEMBL document CHEMBL2407067, “Pyridone-conjugated monobactam antibiotics with gram-negative activity” (J Med Chem, 2013).

What was measured:
[1] = test system: Pseudomonas aeruginosa; assay: Ratio of MIC for PiuA/PirA receptor-deficient Pseudomonas aeruginosa PAO1 to MIC for Pseudomonas aeruginosa PAO1 in iron-chelated Muller-Hinton broth medium by broth microdilution method; format: functional
[2] = test system: Pseudomonas aeruginosa; assay: Ratio of MIC for PiuA/PirA receptor-deficient Pseudomonas aeruginosa PAO1 to MIC for Pseudomonas aeruginosa PAO1 in Muller-Hinton broth medium by broth microdilution method; format: functional
[3] = test system: Pseudomonas aeruginosa; assay: Ratio of MIC for PiuA receptor-deficient Pseudomonas aeruginosa PAO1 to MIC for Pseudomonas aeruginosa PAO1 in Muller-Hinton broth medium by broth microdilution method; format: functional
[4] = test system: Pseudomonas aeruginosa; assay: Antibacterial activity against PiuA/PirA receptor-deficient Pseudomonas aeruginosa PAO1 in iron-chelated Muller-Hinton broth medium by broth microdilution method; format: functional
[5] = test system: Pseudomonas aeruginosa; assay: Antibacterial activity against PiuA/PirA receptor-deficient Pseudomonas aeruginosa PAO1 in Muller-Hinton broth medium by broth microdilution method; format: functional
[6] = test system: Pseudomonas aeruginosa; assay: Antibacterial activity against PiuA/FptA receptor-deficient Pseudomonas aeruginosa PAO1 in iron-chelated Muller-Hinton broth medium by broth microdilution method; format: functional
[7] = test system: Pseudomonas aeruginosa; assay: Antibacterial activity against PiuA/FptA receptor-deficient Pseudomonas aeruginosa PAO1 in Muller-Hinton broth medium by broth microdilution method; format: functional
[8] = test system: Pseudomonas aeruginosa; assay: Antibacterial activity against PiuA/FpvA receptor-deficient Pseudomonas aeruginosa PAO1 in iron-chelated Muller-Hinton broth medium by broth microdilution method; format: functional
[9] = test system: Pseudomonas aeruginosa; assay: Antibacterial activity against PiuA/FpvA receptor-deficient Pseudomonas aeruginosa PAO1 in Muller-Hinton broth medium by broth microdilution method; format: functional
[10] = test system: Pseudomonas aeruginosa; assay: Antibacterial activity against FptA receptor-deficient Pseudomonas aeruginosa PAO1 in iron-chelated Muller-Hinton broth medium by broth microdilution method; format: functional
[11] = test system: Pseudomonas aeruginosa; assay: Antibacterial activity against FptA receptor-deficient Pseudomonas aeruginosa PAO1 in Muller-Hinton broth medium by broth microdilution method; format: functional
[12] = test system: Pseudomonas aeruginosa; assay: Antibacterial activity against FpvA receptor-deficient Pseudomonas aeruginosa PAO1 in iron-chelated Muller-Hinton broth medium by broth microdilution method; format: functional
[13] = test system: Pseudomonas aeruginosa; assay: Antibacterial activity against FpvA receptor-deficient Pseudomonas aeruginosa PAO1 in Muller-Hinton broth medium by broth microdilution method; format: functional
[14] = test system: Pseudomonas aeruginosa; assay: Antibacterial activity against PirA receptor-deficient Pseudomonas aeruginosa PAO1 in iron-chelated Muller-Hinton broth medium by broth microdilution method; format: functional
[15] = test system: Pseudomonas aeruginosa; assay: Antibacterial activity against PirA receptor-deficient Pseudomonas aeruginosa PAO1 in Muller-Hinton broth medium by broth microdilution method; format: functional
[16] = test system: Pseudomonas aeruginosa; assay: Antibacterial activity against PiuA receptor-deficient Pseudomonas aeruginosa PAO1 in iron-chelated Muller-Hinton broth medium by broth microdilution method; format: functional
[17] = test system: Pseudomonas aeruginosa; assay: Antibacterial activity against PiuA receptor-deficient Pseudomonas aeruginosa PAO1 in Muller-Hinton broth medium by broth microdilution method; format: functional
[18] = test system: Pseudomonas aeruginosa; assay: Antibacterial activity against Pseudomonas aeruginosa PAO1 in iron-chelated Muller-Hinton broth medium by broth microdilution method; format: functional
[19] = test system: Pseudomonas aeruginosa; assay: Antibacterial activity against Pseudomonas aeruginosa PAO1 in Muller-Hinton broth medium by broth microdilution method; format: functional
[20] = test system: Acinetobacter baumannii; assay: Antibacterial activity against Acinetobacter baumannii AB-3167 by broth microdilution method; format: functional
[21] = test system: Klebsiella pneumoniae; assay: Antibacterial activity against Klebsiella pneumoniae 1487-07 by broth microdilution method; format: functional
[22] = test system: Klebsiella pneumoniae; assay: Antibacterial activity against Klebsiella pneumoniae 1000-02 by broth microdilution method; format: functional
[23] = test system: Pseudomonas aeruginosa; assay: Antibacterial activity against Pseudomonas aeruginosa 1042-06 by broth microdilution method; format: functional
[24] = test system: Pseudomonas aeruginosa; assay: microbe, parasite or virus in culture; conditions: 1091-05
Description: Antibacterial activity against Pseudomonas aeruginosa 1091-05 by broth microdilution method

[25] = Inhibition of PBP3 in Pseudomonas aeruginosa ATCC 27853 after 20 mins by fluorescence assay
[26] = Inhibition of PBP2 in Pseudomonas aeruginosa ATCC 27853 after 20 mins by fluorescence assay
[27] = Inhibition of PBP1b in Pseudomonas aeruginosa ATCC 27853 after 20 mins by fluorescence assay
[28] = Inhibition of PBP1a in Pseudomonas aeruginosa ATCC 27853 after 20 mins by fluorescence assay

SMILES | Ratio [1] | Ratio [2] | Ratio [3] | MIC [4] [µg/mL] | MIC [5] [µg/mL] | MIC [6] [µg/mL] | MIC [7] [µg/mL] | MIC [8] [µg/mL] | MIC [9] [µg/mL] | MIC [10] [µg/mL] | MIC [11] [µg/mL] | MIC [12] [µg/mL] | MIC [13] [µg/mL] | MIC [14] [µg/mL] | MIC [15] [µg/mL] | MIC [16] [µg/mL] | MIC [17] [µg/mL] | MIC [18] [µg/mL] | MIC [19] [µg/mL] | MIC [20] [µg/mL] | also measured
CC(C)(O/N=C(\C(=O)N[C@@H]1C(=O)N(S(=O)(=O)[O-])[C@@H]1CNC(=O)c1cc(=O)c(O)cn1O)c1csc(N)n1)C(=O)[O-].[Na+].[Na+] | >=64 | >=64 | 16 | 64 | 64 | 0.5 | 8 | 1 | 16 | 0.5 | 0.5 | 0.5 | 1 | 0.5 | 0.5 | 0.5 | 8 | 0.5 | 0.5 | 0.5 | MIC [21]: 0.25 µg/mL; MIC [22]: < 0.06 µg/mL; MIC [23]: 0.5 µg/mL; MIC [24]: 0.5 µg/mL
CC(C)(O/N=C(\C(=O)N[C@@H]1C(=O)N(S(=O)(=O)[O-])[C@@H]1CNC(=O)c1cc(-c2cc(=O)c(O)cn2O)no1)c1csc(N)n1)C(=O)[O-].[Na+].[Na+] | >=64 | >=64 | 32 | 16 | 32 | 1 | 8 | 0.5 | 8 | 0.25 | 0.25 | 0.125 | 0.125 | 0.25 | 0.25 | 1 | 8 | 0.25 | 0.25 | 0.125 | IC50 [25]: 6 nM; IC50 [26]: > 300000 nM; IC50 [27]: 150 nM; IC50 [28]: 110 nM; MIC [22]: 1 µg/mL; MIC [23]: 0.25 µg/mL; MIC [24]: 0.25 µg/mL
